Among the data in patent publication US20120237552A1, “Peptoid Agonists of Nerve Growth Factor and Their Use as Medicaments” (priority 2009, published 2012) are EAE clinical severity values, retold here.

Entries after “also recorded” stand apart in the source; their conditions may differ.

This experiment deals with C57BL/6 EAE mice. Description: Experimental autoimmune encephalomyelitis (EAE) clinical score. It is filed as in vivo. The note with it: daily intraperitoneal, day 0 to day 25. How it is done: Trials were approved by the Parc Cientific de Barcelona Committee on Animal Care. Female C57BL/6 mice from Harlan (8-12 weeks old) were immunized subcutaneously in both hind pads with 300 μg of myelin oligodendrocyte glycoprotein (MOG) peptide 35-55 (Spikem, Firenze) emulsified with 50 μg of Mycobacterium tuberculosis (H37Ra strain; Difco, Detroit, Mich.) in incomplete Freund's adjuvant (IFA) as previously described (Adams et al. 2007). Mice were intraperitoneally injected with Pertussis toxin (Sigma)(500 ng) at the time of immunization and 2 days later. Animals were weighted and inspected for clinical signs of disease on a daily basis by a blinded observer. Disease severity of EAE was assessed according to the following scale: 0=normal; 0.5=mild limp tail; 1=limp tail; 2=mild parapesis of the hind limbs, unsteady gait; 3=moderate parapesis, voluntary movements still possible; 4=paraplegia or tetraparesis; 5=moribund state. Data shown for the clinical studies are representative of two independent experiments performed with the indicated number of animals (Moreno et al., 2006).
The agonist molecules selected for the animal studies, N35-4-8C, N6-4-17C and N35-4-17C, were prepared in water with 5% DMSO. Animals were treated with the agonist molecule (25, 50 and 100 mg/kg) or placebo (water+5% DMSO) through daily intraperitoneal injection starting after immunization. At the end of the study, mice were anesthetized and perfused intracardially with 4% of paraformaldehyde in 0.1M phosphate buffer (pH 7.6). Brains, spinal cords and spleens were dissected and either fixed or frozen until use. Serum was obtained from all animals included in the study, and transaminases levels were measured.
In order to evaluate the effects of the NGF-like peptoids “in vivo”, we studied the effect of the NGF-mimetic peptoids in the animal model of MS. C57BL/6 mice immunized with MOG35-55 peptide were treated daily with N35-4-8C, N6-4-17C and N35-4-17C intraperitoneally from day 0 to day 25 at a different concentrations of the compound. N35-4-8C was tested at 3 different concentrations selected in base to previous experiments using agonist molecules in animal models: 25 mg/kg, 50 mg/kg and 100 mg/kg. […] N35-4-17C was also tested at the same concentrations. […] Moreover, the treatment had higher clinical scores with a clear worsening in the progression of the disease (FIG. 4C).

`CC(C)CCN(CC(=O)N(CCCN1CCCC1=O)CC(N)=O)C(=O)CNCCc1ccccc1F` [N35-4-8C, [N-(2-(2′-Fluorophenyl)ethyl)glycyl]-[N-(3-methylbutyl)glycyl]-N-[3-(2′-oxopyrrolidinyl)propyl]glycinamide]: the EAE clinical severity entry is given as “no effect in disease clinical severity” (25 mg/kg), “an effect but more moderate” (50 mg/kg) and “almost a complete prevention of EAE; also recorded: prevents EAE” (100 mg/kg).
